Where only a bound is given, the exact number is not on record here.

As usually defined, the IC50 is the point on the concentration scale where inhibition reaches its midpoint.

The test system of the first assay is NASH mice. As to the kind of experiment: Non-alcoholic steatohepatitis (STZ + high fat diet) mouse model. The class given is in vivo. The following applies: Telmisartan 10 mg/kg once daily oral, 5 to 9 weeks of age; Vehicle 18.8±1.0 g. The method, then: NASH was induced in 48 male mice by a single subcutaneous injection of 200 μg streptozotocin (STZ; Sigma-Aldrich) in the back of mice 2 days after birth, and by feeding with high fat diet (HFD; 57 kcal % fat) after 4 weeks of age. At 5 weeks of age, the NASH mice were randomized into 6 groups of 8 mice based on body weight. Eight male littermates, fed with normal diet (without STZ treatment, were used for the Normal group. Vehicle, Compound A and Telmisartan were administered by the oral route in a volume of 10 mL/kg body weight.
Compound A was administered twice daily at doses of 1, 3 or 10 mg/kg body weight (i.e., 2, 6 or 20 mg/kg/day) and once daily at dose of 30 mg/kg body weight. Telmisartan was administered once daily at a dose of 10 mg/kg body weight.
C57BL/6 mice (15-day pregnant female) were obtained from Charles River Laboratories Japan (Japan). The animals were maintained in a SPF facility under controlled conditions of temperature (23±2° C.), humidity (45±10%), lighting (12-hour artificial light and dark cycles; light from 8:00 to 20:00) and air exchange. A high pressure (20±4 Pa) was maintained in the experimental room to prevent contamination of the facility.
Mice were fasted for 4 hours before blood was collected at the time of sacrifice. HbA1c levels were quantified in whole blood samples by DCA Vantage Analyzer (Siemens Healthcare Diagnostics, USA). For plasma biochemistry, blood was collected in polypropylene tubes with anticoagulant (Novo-Heparin;) and centrifuged at 1,000×g for 15 minutes at 4° C. The supernatant was collected and stored at −80° C. until use. Plasma levels of glucose, ALT, TG and total cholesterol were measured by FUJI DRI-CHEM 7000 (Fujifilm, Japan). Plasma insulin concentration was quantified by the Ultra Sensitive Mouse Insulin ELISA Kit.
Liver total lipid-extracts were obtained by Folch's method (Folch J. et al., J. Biol. Chem. 1957; 226: 497). Liver samples were homogenized in chloroform-methanol (2:1, v/v) and incubated overnight at room temperature. After washing with chloroform-methanol-water (8:4:3, v/v/v), the extracts were evaporated to dryness, and dissolved in isopropanol. Liver TG levels were measured by Triglyceride E-test (Wako Pure Chemical Industries). Extracts were diluted 2-fold in isopropanol when the TG content exceeded the detection limit.
For HE staining, sections were cut from paraffin blocks of liver tissue prefixed in Bouin's solution and stained with Lillie-Mayer's Hematoxylin (Muto Pure Chemicals, Japan) and eosin solution (Wako Pure Chemical Industries). NAFLD Activity score (NAS) was calculated according to the criteria of Kleiner (Kleiner D E et al., Hepatology, 2005; 41:1313). To visualize collagen deposition, Bouin's fixed liver sections were stained using picro-Sirius red solution (Waldeck, Germany). To visualize macro- and microvesicular fat, cryosections were cut from frozen liver tissues, prefixed in 10% neutral buffered formalin, embedded in Tissue-Tek O.C.T. compound (Sakura Finetek Japan, Japan), and stained with Oil Red O (Sigma-Aldrich). For immunohistochemistry, sections were cut from frozen liver tissues embedded in Tissue-Tek O.C.T. compound and fixed in acetone. Endogenous peroxidase activity was blocked using 0.03% H2O2 for 5 minutes, followed by incubation with Block Ace (Dainippon Sumitomo Pharma, Japan) for 10 minutes. The sections were incubated with a 200-fold dilution of anti-F4/80 antibody (BMA Biomedicals, Switzerland) over night at 4° C. After incubation with secondary antibody (HRP-Goat anti-rat antibody, Invitrogen, USA), enzyme-substrate reactions were performed using 3, 3′-diaminobenzidine/H2O2 solution (Nichirei, Japan). […]
Regarding `CCCc1nc2c(C)cc(-c3nc4ccccc4n3C)cc2n1Cc1ccc(-c2ccccc2C(=O)O)cc1` [Telmisartan, reference compound], the “Mean body weight at the day before sacrifice” value was 15.6 ± 1.8 g.

The assay is the same for the next values; noted with them: Telmisartan 10 mg/kg once daily; Vehicle 1.07±0.18%.
Regarding `CCCc1nc2c(C)cc(-c3nc4ccccc4n3C)cc2n1Cc1ccc(-c2ccccc2C(=O)O)cc1` [Telmisartan, reference compound], the “Fibrosis area (Sirius red-positive area)” value is reported as 0.42±0.08%.

The same assay, now with this note: Telmisartan 10 mg/kg once daily; Vehicle 3.57±0.88%.
As to `CCCc1nc2c(C)cc(-c3nc4ccccc4n3C)cc2n1Cc1ccc(-c2ccccc2C(=O)O)cc1` [Telmisartan, reference compound], the “Inflammation area (F4/80-positive area)” value is reported as 3.84±0.86%.

The assay is the same for the next values; noted with them: Telmisartan 10 mg/kg once daily; Vehicle 5.4±0.9.
As to `CCCc1nc2c(C)cc(-c3nc4ccccc4n3C)cc2n1Cc1ccc(-c2ccccc2C(=O)O)cc1` [Telmisartan, reference compound], the “NAFLD Activity score (NAS)” value was 2.3±0.7.

Staying with this assay, now noted: Telmisartan 10 mg/kg once daily; Vehicle 23.57±6.52%.
Turning to `CCCc1nc2c(C)cc(-c3nc4ccccc4n3C)cc2n1Cc1ccc(-c2ccccc2C(=O)O)cc1` [Telmisartan, reference compound], the “Fat deposition area (oil red-positive area)” value came to 17.29±7.66%.

The same assay, now with this note: Telmisartan 10 mg/kg once daily; Vehicle 67.3±29.0.
Turning to `CCCc1nc2c(C)cc(-c3nc4ccccc4n3C)cc2n1Cc1ccc(-c2ccccc2C(=O)O)cc1` [Telmisartan, reference compound], the “Liver TG content” value was determined as 30.7±11.4 mg/g liver.

The target in the next assay is T1, recombinant human MetAP2 (Homo sapiens, UniProt P50579).
T1 construct: made in house; host or cells: Sf9 insect cells
T1 sequence (P50579 whole entry): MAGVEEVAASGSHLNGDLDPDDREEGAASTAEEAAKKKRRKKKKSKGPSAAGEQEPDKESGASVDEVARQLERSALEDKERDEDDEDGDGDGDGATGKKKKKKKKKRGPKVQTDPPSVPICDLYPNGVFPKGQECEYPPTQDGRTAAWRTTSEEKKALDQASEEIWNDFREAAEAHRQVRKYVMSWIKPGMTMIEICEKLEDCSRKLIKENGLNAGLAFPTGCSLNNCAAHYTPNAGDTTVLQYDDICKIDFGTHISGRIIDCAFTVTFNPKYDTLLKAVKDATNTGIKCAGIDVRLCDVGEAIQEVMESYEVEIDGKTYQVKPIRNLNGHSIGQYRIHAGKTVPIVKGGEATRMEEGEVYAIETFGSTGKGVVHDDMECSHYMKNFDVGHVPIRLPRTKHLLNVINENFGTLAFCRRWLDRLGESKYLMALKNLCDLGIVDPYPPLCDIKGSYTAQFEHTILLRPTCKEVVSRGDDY
As to the kind of experiment: Recombinant human MetAP2 inhibition assay (MAS substrate, Amplex red fluorescence). The class given is biochemical. The following applies: human recombinant MetAP2 manganese enzyme, 0.75 mM MAS substrate, 30 minutes at 25° C., pH 7.5; read-out: Activity (MetAP2 IC50 class). The method, then:
Compounds are tested for their capacity to inhibit recombinant human MetAP2 activity using the following assay.
Human recombinant MetAP2 expressed in Sf9 cells followed by affinity purification and EDTA treatment to remove endogenous active site cation was dialysed against MnCl2 to produce the manganese enzyme used in the assay. The assay was carried out for 30 minutes at 25° C. in 50 mM HEPES buffer containing 100 mM NaCl, pH 7.5 the presence of 0.75 mM Methionine-Alanine-Serine (MAS) substrate and 50 µg/ml amino acid oxidase using a dilution of purified MetAP2 giving >3-fold signal: noise. Cleavage of the substrate by MetAP2 and oxidation of free methionine by amino acid oxidase was detected and quantified using fluorescence generated by Amplex red (10-acetyl-3,7-dihydroxyphenoxazine) in combination with horseradish peroxidase which detects H2O2 released during the oxidation step. The fluorescent signal was detected using a multiwell fluorimeter. Compounds were diluted in DMSO prior to addition to assay buffer, the final DMSO concentration in the assay being 1%.
IC50 values are calculated using the XLfit software package (version 2.0.5).
Take `CCN(CC)C/C=C\c1cc(F)ccc1S(=O)(=O)Nc1ccc2c(c1C(=O)O)OC[C@@H]1C[C@]21C` (racemic) [(1aRS,7bSR)-5-[2-((Z)-3-Diethylaminoprop-1-enyl)-4-fluorobenzenesulfonylamino]-7b-methyl-1,1a,2,7b-tetrahydrocyclopropa[c]chromene-4-carboxylic acid]: the IC50 was below 50 nM.
On the same count and under the same terms, next, `CCN1CC(CNc2ccccc2S(=O)(=O)Nc2ccc3c(c2C(=O)O)OC[C@@H]2C[C@H]32)C1` (racemic) [(1aRS,7bSR)-5-{2-[(1-Ethylazetidin-3-ylmethyl)amino]benzene-sulfonylamino}-1,1a,2,7b-tetrahydrocyclopropa[c]chromene-4-carboxylic acid]: 50 to 500 nM; “(1aRS,7bSR)-5-{2[(Z)-3-((R)-3-Hydroxypyrrolidin-1-yl)aminoprop-1-enyl]-4-fluorobenzene-sulfonylamino}-1,1a,2,7b-tetrahydro-cyclopropa[c]chromene-4-carboxylic acid”: 50 to 500 nM; `CN(C)CCCCNc1ccccc1S(=O)(=O)Nc1ccc2c(c1C(=O)O)OCC1CC21` (single isomer, unassigned): below 50 nM.
As for `CCN1CC[C@H](N(C)C(=O)Cc2cc(F)ccc2S(=O)(=O)Nc2ccc3c(c2C(=O)O)OC[C@@H]2C[C@H]32)C1` (mixture of isomers), the 50% inhibitory concentration (IC50) lay within 50 to 500 nM.
Same read-out and setting: next, `CCN1CC[C@@H](NC(=O)Cc2cc(F)ccc2S(=O)(=O)Nc2ccc3c(c2C(=O)O)OC[C@@H]2C[C@H]32)C1` (mixture of isomers): 50 to 500 nM; `CCN(CC)C/C=C\c1ccccc1S(=O)(=O)Nc1ccc2c(c1C(=O)O)OCC1CC21` (single isomer, unassigned) [listing 1 of 2 here]: below 50 nM; `CCN1CC[C@@H](N(C)C(=O)Cc2cc(F)ccc2S(=O)(=O)Nc2ccc3c(c2C(=O)O)OC[C@@H]2C[C@H]32)C1` (mixture of isomers): 50 to 500 nM.
Still for that read-out and setting: next, `O=C(O)c1c(NS(=O)(=O)c2ccc(F)cc2/C=C\CN2CCCC2)ccc2c1OCC1CC21` (single isomer, unassigned) [listing 1 of 2 here]: 50 to 500 nM.
Turning to `CCN(CC)C/C=C/c1cc(F)ccc1S(=O)(=O)Nc1ccc2c(c1C(=O)O)OC[C@@H]1C[C@]21C` (racemic) [(1aRS,7bSR)-5-[2-((E)-3-Diethylaminoprop-1-enyl)-4-fluorobenzenesulfonylamino]-7b-methyl-1,1a,2,7b-tetrahydrocyclopropa[c]chromene-4-carboxylic acid], the IC50 lay within 50 to 500 nM.
On the same count and under the same terms, next, `O=C(O)c1c(NS(=O)(=O)c2ccc(F)cc2/C=C\CN2CC(O)C2)ccc2c1OC[C@@H]1C[C@H]21` (racemic) [(1aRS,7bSR)-5-{2[(Z)-3-(3-Hydroxyazetidin-1-yl)prop-1-enyl]-4-fluorobenzene-sulfonylamino}-1,1a,2,7b-tetrahydrocyclopropa[c]chromene-4-carboxylic acid]: below 50 nM; `CCN(CC)CC/C=C\c1cc(F)ccc1S(=O)(=O)Nc1ccc2c(c1C(=O)O)OC[C@@H]1C[C@H]21` (racemic) [(1aRS,7bSR)-5-[2((Z)-4-Diethylaminobut-1-enyl)-4-fluorobenzenesulfonyl-amino]-1,1a,2,7b-tetrahydrocyclopropa[c]chromene-4-carboxylic acid]: below 50 nM; `CCN1CCC[C@H]1C(=O)N(C)Cc1cc(F)ccc1S(=O)(=O)Nc1ccc2c(c1C(=O)O)OC[C@@H]1C[C@H]21` (mixture of isomers): 50 to 500 nM.
Still for that read-out and setting: next, `CCN(CC)C/C=C\c1ccccc1S(=O)(=O)Nc1ccc2c(c1C(=O)O)OCC1CC21` (single isomer, unassigned) [listing 2 of 2 here]: 50 to 500 nM; `CCNC/C=C\c1cc(F)ccc1S(=O)(=O)Nc1ccc2c(c1C(=O)O)OCC1CC21` (single isomer, unassigned) [listing 1 of 2 here]: 50 to 500 nM.
The same measure, in the same setting: then `CCNC/C=C\c1cc(F)ccc1S(=O)(=O)Nc1ccc2c(c1C(=O)O)OCC1CC21` (single isomer, unassigned) [listing 2 of 2 here], with below 50 nM; and `CCN1CC[C@@H](Cc2cc(F)ccc2S(=O)(=O)Nc2ccc3c(c2C(=O)O)OCC2CC32)C1` (single isomer, unassigned) [listing 1 of 2 here], with below 50 nM; and `CN(C)CCCNc1ccccc1S(=O)(=O)Nc1ccc2c(c1C(=O)O)OCC1CC21` (single isomer, unassigned), with below 50 nM.
Consider `CC(C)NC/C=C\c1cc(F)ccc1S(=O)(=O)Nc1ccc2c(c1C(=O)O)OC[C@@H]1C[C@H]21` (racemic) [(1aRS,7bSR)-5-{2[(Z)-3-(propan-2-yl)aminoprop-1-enyl]-4-fluorobenzene-sulfonylamino}-1,1a,2,7b-tetrahydrocyclopropa[c]chromene-4-carboxylic acid], for which the IC50 was in the range of 50 to 500 nM.
Same read-out and setting: next, `CCN1CC[C@@H](Cc2cc(F)ccc2S(=O)(=O)Nc2ccc3c(c2C(=O)O)OCC2CC32)C1` (single isomer, unassigned) [listing 2 of 2 here]: 50 to 500 nM.
The same measure, in the same setting: then `O=C(O)c1c(NS(=O)(=O)c2ccccc2)ccc2c3c(cnc12)OCC3`, with below 50 nM.
Same read-out and setting: next, `CCN(CC)C/C=C\c1cc(F)ccc1S(=O)(=O)Nc1ccc2c(c1C(=O)O)OC[C@@H]1[C@H]2C1(F)F` (racemic) [(1aRS,7bSR)-5-[2-((Z)-3-Diethylaminoprop-1-enyl)-4-fluorobenzene-sulfonylamino]-1,1-difluoro-1,1a,2,7b-tetrahydrocyclopropa[c]chromene-4-carboxylic acid]: below 50 nM; “(1aRS,7bSR)-5-{2[(Z)-3-((S)-3-hydroxypyrrolidin-1-yl)aminoprop-1-enyl]-4-fluorobenzenesulfonylamino}-1,1a,2,7b-tetrahydrocyclopropa[c]chromene-4-carboxylic acid”: 50 to 500 nM.
Take `O=C(O)c1c(NS(=O)(=O)c2ccc(F)cc2/C=C\CN2CCCC2)ccc2c1OCC1CC21` (single isomer, unassigned) [listing 2 of 2 here]: the IC50 is 50 to 500 nM.

For the origin of these results see patent US10064839B2, “Methods of treating liver diseases” (Zafgen, Inc., priority 2012, dated 2018).
